From US11691990B2, “Salts of compounds and crystals thereof” (Eisai R&D Management Co., Ltd., priority 2018, dated 2023)

Experiments:
[1] = system: primary human PBMC; test: Ex vivo human PBMC stimulation assay, IFNβ protein; type: cell-based; details: 24 hours, average of five donors
Method: Human blood from 5 healthy donors was collected using 10.0 mL BD Vacutainer Sodium heparin tubes (cat #367874). Peripheral blood mononuclear cell (PBMC) isolation was done using SIGMA ACCUSPIN 50 ml Tubes (cat #A2055) and sigma ACCUSPIN System-HISTOPAQUE-1077 (cat #A7054) using protocol provided by manufacturer. […] PBMC were counted and finally suspended at 1×10e6/ml in RPMI (corning cat #10-041-CV) supplemented with 10% fetal bovine serum (FBS) (Gibco cat #20140.79). 1 ml of cell (1×10e6) were transferred into Falcon 5 mL Round Bottom Polypropylene Test Tube (cat #352063) and stimulated with different concentrations ([…]) for 24 hours in 5% CO2 incubator at 37° C. After 24 hours of incubation the tubes were centrifuged at 1400 rpm for 5 minutes and supernatants were harvested. Supernatant were stored in −80° C. for subsequent IFN measurement. IFNβ measurement was done using Human IFN-β Base Kit (Meso Scale Diagnostics cat #K151ADA) and protocol provided by manufacturer was used. IFN-beta estimation was done by reading assay plate at MESO SECTOR Imager 2400 and using MSD Discovery Workbench 4.0 program. After 24 hours IFNβ protein was analyzed. […] Results shown in Table 3 reflect an average of measurements conducted using five different donors.

[2] = system: CT26 tumor cells; test: CT26 dual tumor model (mouse colon cancer model); type: in vivo; details: I.T. single dose, study B
Method: For study A, treatment was started 5 days (1.25 mg/kg, 2.5 mg/kg and 5 mg/kg) after the tumor implantation, when the average tumors reached approximately 100 mm^3. For study B, treatment was started 8 days (0.6 mg/kg, and 10 mg/kg) after the tumor implantation, when the average tumors reached approximately 120 mm^3. The treatment scheme is described in Table 5 and Table 6.
All the mice in the study have two subcutaneous CT26 tumors. The “treated tumor” indicates the tumor with compound direct administration, while “untreated tumor” indicates the tumor without direct compound administration. Tumor volume was followed throughout the experiment. Tumor volume is measured two times weekly after the start of treatment. Tumor burden is calculated from caliper measurements by the formula for the volume of a prolate ellipsoid (L×W^2)/2 where L and W are the respective orthogonal length and width measurements (mm).

Q: What does the source list for `O=[P@]1(S)OC[C@H]2O[C@@H]3[C@H](F)[C@@H]2O[P@](=O)(S)OC[C@H]2O[C@H]([C@H](F)[C@@H]2O1)n1cnc2c(ncnc21)NC/C=C/CNc1ncnc2c1ncn23` [Compound (1a), (1R,3R,15E,28R,29R,30R,31R,34R,36R,39S,41R)-29,41-Difluoro-34,39-bis(sulfanyl)-2,33,35,38,40,42-hexaoxa-4,6,9,11,13,18,20,22,25,27-decaaza-34λ^5,39λ^5-diphosphaoctacyclo[28.6.4.1^3,36.1^28,31.0^4,8.0^7,12.0^19,24.0^23,27]dotetraconta-5,7,9,11,15,19,21,23,25-nonaene-34,39-dione]?
A: IFNβ ([1]; 0.1 μM): 21.3 ± 17.8 pg/mL; IFNβ ([1]; 1 μM): 227.5 ± 62.4 pg/mL; IFNβ ([1]; 10 μM): 540.2 ± 215.0 pg/mL; cure rate, treated tumors ([2]; 0.6 mg/kg): 20%; animals cured of treated tumor at the end of study ([2]; 10 mg/kg): 100%; curative effects, untreated tumors ([2]; 10 mg/kg): 80%
